# Article PMC3088504 (Bioorganic & medicinal chemistry, 2009)
# Molecular target: H1 receptor (Homo sapiens, UniProt P35367)
# Assay: H1 competitive radioligand binding assay
# Conditions: H1 versus 5-HT2A, from Ki values
# Chain of H1 receptor (P35367 whole entry): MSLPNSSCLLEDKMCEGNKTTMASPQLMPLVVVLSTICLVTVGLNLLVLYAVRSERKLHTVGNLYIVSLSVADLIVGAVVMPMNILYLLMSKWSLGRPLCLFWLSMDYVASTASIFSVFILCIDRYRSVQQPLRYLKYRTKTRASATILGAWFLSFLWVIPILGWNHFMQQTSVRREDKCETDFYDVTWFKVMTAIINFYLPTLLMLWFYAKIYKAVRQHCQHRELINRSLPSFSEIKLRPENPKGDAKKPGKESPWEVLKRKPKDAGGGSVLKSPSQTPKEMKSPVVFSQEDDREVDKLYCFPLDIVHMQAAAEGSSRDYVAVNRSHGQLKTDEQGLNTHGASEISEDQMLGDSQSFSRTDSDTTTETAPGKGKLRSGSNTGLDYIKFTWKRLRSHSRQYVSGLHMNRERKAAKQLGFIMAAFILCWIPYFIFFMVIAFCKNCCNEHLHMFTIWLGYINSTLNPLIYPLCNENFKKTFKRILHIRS
structure (smiles),measurement,value
CN(C)CCCC1c2ccccc2Cc2ccccc21 [Compound 3c],selectivity for the H1 receptor,44 fold
